Several values for one entry are separate records, joined by “and”; a condition that tells them apart may be missing. Equal entries are not always repeated.
Assays:
[1] = system: Human Immunodeficiency Virus; test: Anti-HIV testing in cell culture: inhibition of cell-to-cell transmission of HIV measured as p24 protein production; format: cell-based; details: for MEAN P24 value: mean of three tests; for % VIRAL CONCENTRATION: relative to 0.0 μM = 100.0; for P24 value as measurement of HIV concentration: separate efficacy tests (samples 1-3)
Description: Testing was performed independently at the NIH using standard testing protocol.

Sprague-Dawley rats = test: In vivo toxicity study in rats, oral administration (gavage); details: increasing amounts up to 2 g/kg body weight
Source text: (b) Oral Administration: Sprague-Dawley rats weighing approximately 250 g were orally gavaged with increasing amounts of polysulfate polymethylsulfate dextrin dissolved in sterile water up to a dose of 2 g/kg body weight.

polysulfate polymethylsulfate dextrin
MEAN P24 value ([1]; 0.32 μM): 664.0 pg/mL | % VIRAL CONCENTRATION ([1]; 0.32 μM): 96.1% | P24 value as measurement of HIV concentration ([1]; 0.32 μM): 672.3 pg/mL and 654.6 pg/mL and 665.0 pg/mL | MEAN P24 value ([1]; 1.0 μM): 371.5 pg/mL | % VIRAL CONCENTRATION ([1]; 1.0 μM): 53.7% | P24 value as measurement of HIV concentration ([1]; 1.0 μM): 407.1 pg/mL and 351.2 pg/mL and 356.1 pg/mL | MEAN P24 value ([1]; 3.2 μM): 5.5 pg/mL | % VIRAL CONCENTRATION ([1]; 3.2 μM): 0.8% | MEAN P24 value ([1]; 10 μM): -6.1 pg/mL | % VIRAL CONCENTRATION ([1]; 10 μM): −0.9% | MEAN P24 value ([1]; 32 μM): -8.8 pg/mL | % VIRAL CONCENTRATION ([1]; 32 μM): −1.3% | MEAN P24 value ([1]; 100 μM): -27 pg/mL | % VIRAL CONCENTRATION ([1]; 100 μM): −3.9% | IC50 ([1]; average of three separate tests, p24 production, cell-to-cell transmission of HIV, read-out: calculated 50% inhibition (IC50) / average inhibitory concentration 50%): 1.16 µM | toxic effects after oral administration (Sprague-Dawley rats): No toxic effects
